Assay results from patent publication US20220273659A1, “HETEROCYCLIC COMPOUNDS AS KINASE INHIBITORS” (NUVATION BIO INC., priority 2019, published 2022).
Like-named read-outs stand apart in the source and are kept apart here.

How the values were obtained:
[1] = molecular target: T1, CDK6 (Homo sapiens, UniProt Q00534); assay: In vitro kinase inhibition IC50, luminescence (ADP Glo), retinoblastoma substrate; assay type: biochemical; details: read-out: CDK6/D1 IC50
T1 construct: purchased Invitrogen PR8422B
Procedure, shortened: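 Recombinant CDK6 (5 nM) with retinoblastoma substrate (1 μM) and 25 μM ATP, compound at final 0.1–200 nM, incubated 2 h at room temperature. ADP formed detected by ADP-Glo luminescence. IC50 from four-parameter logistic fit of percent inhibition.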

[2] = molecular target: T2, CDK4 (Homo sapiens, UniProt P11802); assay: as above; assay type: biochemical; details: read-out: CDK4/D1 IC50
T2 construct: purchased Invitrogen PR8064A
Procedure, shortened: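 CDK4 enzyme (5 nM, Invitrogen) was combined with test compound and a mix of retinoblastoma substrate (1 μM) plus ATP (25 μM) in kinase buffer, 30 μL/well in 96-well half area white plates. After 2H at room temperature, ADP Glo reagent stopped the reaction for 45 min, then detection reagent was added and luminescence was read.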

[3] = test system: DU4475 breast carcinoma cells; assay: Cancer cell proliferation assay, single agent (cell viability); assay type: cell-based; details: Homo sapiens, DU-4475; Table 4; Rb negative; treatment 144 Hr with medium change at 72 Hr; Cell Titer-Glo or resazurin
Procedure, shortened: (§1)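 Cells seeded day 1, then exposed on day 2 to 7–9 compound concentrations (e.g. 1.1 nM–10 μM); BT-549 for 24 h, MCF-7 and DU4475 for 144 h with medium change at 72 h. Viability by CellTiter-Glo or resazurin; IC50 from variable-slope sigmoidal fit.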

[4] = test system: MCF-7 breast adenocarcinoma cells; assay: as above; assay type: cell-based; details: Homo sapiens, MCF7, Table 4; Rb positive; treatment 144 Hr with medium change at 72 Hr; Cell Titer-Glo or resazurin
Procedure, shortened: as §1

[5] = molecular target: T3, CDK1 (cyclin B) (Homo sapiens, UniProt P06493); assay: Z'-LYTE kinase assay; assay type: biochemical
T3 construct: purchased Invitrogen Life Technologies (assay service)
Protocol: The plates were shaken for 30 seconds, and incubated for 60 minutes at room temperature. […] The plates were read on fluorescence plate reader with Dual emission at 445 nm and 520 nm.
The following equations were used for Z′-LYTE™ Screening Assay Data Analysis.

[6] = molecular target: T4, CDK2 (cyclin A) (Homo sapiens, UniProt P24941); assay: Z'-LYTE kinase assay; assay type: biochemical
T4 construct: purchased Invitrogen Life Technologies (assay service)
Protocol: IC50 values of compounds against CDK2 (cyclin A) were determined by Z′-LYTE™ These screening assays were performed at Invitrogen Life Technologies (Grand Island, N.Y.) on a low volume NBS, black 384-well plate (#4514, Corning). 0.1 μL of 100×test compound in 100% DMSO (at specific solutions) was mixed with 2.4 μL of Kinase Buffer (50 mM HEPES pH 7.5, 0.01% BRIJ-35, 10 mM MgCl2, 1 mM EGTA), 5 μL of 2× Kinase (1.22-10.3 ng CDK2/cyclin A)/Peptide (2 μM Ser/Thr 12), and 2.5 μL of 4×ATP solution (31 μM). The plates were shaken for 30 seconds, and incubated for 60 minutes at room temperature. Development Reagent Solution (5 μL of 1:1024 dilution) was added to the plates followed with another 30-second plate shake and the plates were further incubated at room temperature for one hour. The plates were read on fluorescence plate reader with Dual emission at 445 nm and 520 nm.
The following equations were used for Z′-LYTE™ Screening Assay Data Analysis. Percent inhibition (100-% activity) was fitted to the “four-parameter logistic model” in XLfit for determination of IC50 values.

T3 sequence (P06493 whole entry): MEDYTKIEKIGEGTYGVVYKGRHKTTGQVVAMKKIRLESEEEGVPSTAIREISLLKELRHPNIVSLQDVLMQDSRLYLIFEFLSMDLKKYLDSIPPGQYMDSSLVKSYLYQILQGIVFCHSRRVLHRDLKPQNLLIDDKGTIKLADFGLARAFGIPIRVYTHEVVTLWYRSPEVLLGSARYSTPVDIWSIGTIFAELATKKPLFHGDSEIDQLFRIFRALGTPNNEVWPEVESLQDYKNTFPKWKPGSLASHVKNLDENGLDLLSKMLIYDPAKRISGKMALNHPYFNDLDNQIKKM
T3 sequence (P14635 whole entry partner): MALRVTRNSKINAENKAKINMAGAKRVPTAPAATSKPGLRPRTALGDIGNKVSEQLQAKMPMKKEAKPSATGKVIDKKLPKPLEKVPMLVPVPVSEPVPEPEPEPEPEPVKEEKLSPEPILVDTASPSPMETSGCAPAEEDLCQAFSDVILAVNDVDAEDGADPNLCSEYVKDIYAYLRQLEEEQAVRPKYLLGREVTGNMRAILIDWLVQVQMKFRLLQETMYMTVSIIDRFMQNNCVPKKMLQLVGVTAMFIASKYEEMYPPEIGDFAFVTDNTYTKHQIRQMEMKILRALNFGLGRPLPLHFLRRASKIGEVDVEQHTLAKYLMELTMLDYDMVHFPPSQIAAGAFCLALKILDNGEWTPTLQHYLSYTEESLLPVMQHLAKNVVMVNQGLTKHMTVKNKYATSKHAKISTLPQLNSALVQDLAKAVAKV
T1 sequence (Q00534 whole entry): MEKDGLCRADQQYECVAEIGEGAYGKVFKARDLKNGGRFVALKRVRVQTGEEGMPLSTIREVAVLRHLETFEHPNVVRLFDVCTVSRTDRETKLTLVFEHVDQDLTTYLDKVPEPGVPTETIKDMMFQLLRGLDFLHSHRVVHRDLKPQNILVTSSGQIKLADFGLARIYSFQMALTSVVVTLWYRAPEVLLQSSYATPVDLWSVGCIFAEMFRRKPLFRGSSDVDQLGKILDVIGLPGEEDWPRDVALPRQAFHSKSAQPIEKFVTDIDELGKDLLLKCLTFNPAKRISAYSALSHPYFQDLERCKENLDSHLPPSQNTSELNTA
T1 sequence (P24385 whole entry partner): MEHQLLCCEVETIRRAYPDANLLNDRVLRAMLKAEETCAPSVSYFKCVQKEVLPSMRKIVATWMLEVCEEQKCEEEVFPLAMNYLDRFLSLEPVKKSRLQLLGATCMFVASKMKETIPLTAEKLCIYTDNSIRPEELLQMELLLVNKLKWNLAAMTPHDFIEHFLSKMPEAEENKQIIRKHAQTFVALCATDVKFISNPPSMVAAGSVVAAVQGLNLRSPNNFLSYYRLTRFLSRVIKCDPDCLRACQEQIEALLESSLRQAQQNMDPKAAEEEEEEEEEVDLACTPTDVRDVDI
T2 sequence (P11802 whole entry): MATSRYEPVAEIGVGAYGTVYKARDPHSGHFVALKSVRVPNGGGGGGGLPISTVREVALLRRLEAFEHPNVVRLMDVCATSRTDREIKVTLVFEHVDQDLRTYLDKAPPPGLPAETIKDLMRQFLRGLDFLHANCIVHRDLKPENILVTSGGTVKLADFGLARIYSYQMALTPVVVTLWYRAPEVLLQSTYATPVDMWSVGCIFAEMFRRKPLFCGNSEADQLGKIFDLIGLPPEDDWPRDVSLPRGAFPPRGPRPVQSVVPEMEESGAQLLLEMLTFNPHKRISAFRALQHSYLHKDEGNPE
T2 sequence (P24385 whole entry partner): as the sequence (P24385 whole entry partner) above

Row | Compound | IC50 [1] [nM] | IC50 [2] [nM] | IC50 [3] [nM] | IC50 [4] [nM] | IC50 [5] [nM] | IC50 [6] [nM] | IC50 ([5]; read-out: CDK1/B IC50) [nM]
1 | CS(=O)(=O)N1CCC(Nc2ncc3cc(C#N)c(=O)n([C@@H]4CCC(F)(F)C4)c3n2)CC1 [Compound No. 385, (R)-8-(3,3-difluorocyclopentyl)-2-(1-(methylsulfonyl)piperidin-4-ylamino)-7-oxo-7,8-dihydropyrido[2,3-d]pyrimidine-6-carbonitrile] | 65 | 49 | > 10000 | 2820 | 2620 | 96 | –
2 | N#Cc1cc2cnc(Nc3ccc4c(c3)CCN(CC(N)=O)C4)nc2n(C2CCCC2)c1=O [Compound No. 69, 2-(6-((6-cyano-8-cyclopentyl-7-oxo-7,8-dihydropyrido[2,3-d]pyrimidin-2-yl)amino)-3,4-dihydroisoquinolin-2(1H)-yl)acetamide] | 7 | 12 | 1680 | 1990 | – | 252 | 683
3 | N#Cc1cc2cnc(NC3CCCC3O)nc2n(C2CCCC2)c1=O (stereo not shown) [Compound No. 349, 8-cyclopentyl-2-((2-hydroxycyclopentyl)amino)-7-oxo-7,8-dihydropyrido[2,3-d]pyrimidine-6-carbonitrile] | 62 | 29 | 5660 | 770 | – | 475 | 735
4 | CS(=O)(=O)N1CCC(Nc2ncc3cc(C#N)c(=O)n([C@H]4C[C@@H]5CC[C@H]4C5)c3n2)CC1 [Compound No. 387, 8-((1S,2S,4R)-bicyclo[2.2.1]heptan-2-yl)-2-(1-(methylsulfonyl)piperidin-4-ylamino)-7-oxo-7,8-dihydropyrido[2,3-d]pyrimidine-6-carbonitrile] | 17 | 20 | 7060 | 580 | 1100 | 88 | –
5 | N#Cc1cc2cnc(Nc3ccc4c(c3)CCN(C(=O)CO)C4)nc2n(C2CCCC2)c1=O [Compound No. 70, 8-cyclopentyl-2-((2-(2-hydroxyacetyl)-1,2,3,4-tetrahydroisoquinolin-6-yl)amino)-7-oxo-7,8-dihydropyrido[2,3-d]pyrimidine-6-carbonitrile] | 6 | 12 | 1180 | 818 | – | 27 | 354
6 | CS(=O)(=O)N1CCC(Nc2ncc3cc(C#N)c(=O)n([C@H]4CCC(F)(F)C4)c3n2)CC1 [Compound No. 384, (S)-8-(3,3-difluorocyclopentyl)-2-(1-(methylsulfonyl)piperidin-4-ylamino)-7-oxo-7,8-dihydropyrido[2,3-d]pyrimidine-6-carbonitrile] | 20 | 24 | 5680 | 1600 | 585 | 28 | –
7 | CC(C)S(=O)(=O)N1CCC(Nc2ncc3cc(C#N)c(=O)n(C4CCCC4)c3n2)CC1 [Compound No. 355, 8-cyclopentyl-2-((1-(isopropylsulfonyl)piperidin-4-yl)amino)-7-oxo-7,8-dihydropyrido[2,3-d]pyrimidine-6-carbonitrile] | 8 | 6.5 | 1520 | 495 | 362 | 20 | –
8 | N#Cc1cc2cnc(Nc3ccc4c(c3)CN(CCN)CC4)nc2n(C2CCCC2)c1=O [Compound No. 65, 2-((2-(2-aminoethyl)-1,2,3,4-tetrahydroisoquinolin-7-yl)amino)-8-cyclopentyl-7-oxo-7,8-dihydropyrido[2,3-d]pyrimidine-6-carbonitrile] | 15 | 17 | 1990 | 569 | – | 169 | 791
9 | N#Cc1cc2cnc(NC3CCN(S(=O)(=O)N4CCOCC4)CC3)nc2n(C2CCCC2)c1=O [Compound No. 383, 8-cyclopentyl-2-(1-(morpholinosulfonyl)piperidin-4-ylamino)-7-oxo-7,8-dihydropyrido[2,3-d]pyrimidine-6-carbonitrile] | 6 | 11 | 2440 | 145 | 233 | 8 | –
10 | CN(C)CCN1CCc2cc(Nc3ncc4cc(C#N)c(=O)n(C5CCCC5)c4n3)ccc2C1 [Compound No. 63, 8-cyclopentyl-2-((2-(2-(dimethylamino)ethyl)-1,2,3,4-tetrahydroisoquinolin-6-yl)amino)-7-oxo-7,8-dihydropyrido[2,3-d]pyrimidine-6-carbonitrile] | 4 | 11 | 1440 | 266 | – | 190 | 655
11 | N#Cc1cc2cnc(Nc3ccc4c(c3)CCNC4)nc2n(C23CC(C2)C3)c1=O [Compound No. 370, 8-(bicyclo[1.1.1]pentan-1-yl)-7-oxo-2-((1,2,3,4-tetrahydroisoquinolin-6-yl)amino)-7,8-dihydropyrido[2,3-d]pyrimidine-6-carbonitrile] | 47 | 124 | 1220 | 445 | – | 242 | 2730
12 | CS(=O)(=O)N1CCC(Nc2ncc3cc(C#N)c(=O)n(C45CC(C4)C5)c3n2)CC1 [Compound No. 369, 8-(bicyclo[1.1.1]pentan-1-yl)-2-((1-(methylsulfonyl)piperidin-4-yl)amino)-7-oxo-7,8-dihydropyrido[2,3-d]pyrimidine-6-carbonitrile] | 5.5 | 7 | 670 | 107 | – | 7 | 87
13 | CS(=O)(=O)N1CCC(Nc2ncc3cc(C(F)F)c(=O)n(C4CC5CCC4C5)c3n2)CC1 (racemic) [Compound 401, 8-((1S,2S,4R)-bicyclo[2.2.1]heptan-2-yl)-6-(difluoromethyl)-2-((1-(methylsulfonyl)piperidin-4-yl)amino)pyrido[2,3-d]pyrimidin-7(8H)-one] | 4.5 | 4 | – | – | – | 19 | 88
14 | N#Cc1cc2cnc(NC3CCN(S(=O)(=O)C(F)(F)F)CC3)nc2n(C2CCCC2)c1=O [Compound No. 371, 8-cyclopentyl-7-oxo-2-((1-((trifluoromethyl)sulfonyl)piperidin-4-yl)amino)-7,8-dihydropyrido[2,3-d]pyrimidine-6-carbonitrile] | 25 | 14 | 2600 | 515 | – | 3410 | > 5000
15 | Cn1ccc(S(=O)(=O)N2CCC(Nc3ncc4cc(C(F)F)c(=O)n([C@@H]5C[C@H]6CC[C@@H]5C6)c4n3)CC2)n1 [Compound 396, 8-((1R,2R,4S)-bicyclo[2.2.1]heptan-2-yl)-6-(difluoromethyl)-2-((1-((1-methyl-1H-pyrazol-3-yl)sulfonyl)piperidin-4-yl)amino)pyrido[2,3-d]pyrimidin-7(8H)-one] | 7 | 17 | – | – | 100 | 14 | –
16 | Cn1ccc(S(=O)(=O)N2CCC(Nc3ncc4cc(C(F)F)c(=O)n([C@H]5C[C@@H]6CC[C@H]5C6)c4n3)CC2)n1 [Compound 395, 8-((1S,2S,4R)-bicyclo[2.2.1]heptan-2-yl)-6-(difluoromethyl)-2-((1-((1-methyl-1H-pyrazol-3-yl)sulfonyl)piperidin-4-yl)amino)pyrido[2,3-d]pyrimidin-7(8H)-one] | 11 | 13 | – | – | 66 | 18 | –
17 | CS(=O)(=O)N1CCC(Nc2ncc3cc(C(F)F)c(=O)n([C@H]4C[C@H]5C[C@H]5C4)c3n2)CC1 [Compound 196, 8-((1R,3R,5S)-bicyclo[3.1.0]hexan-3-yl)-6-(difluoromethyl)-2-((1-(methylsulfonyl)piperidin-4-yl)amino)pyrido[2,3-d]pyrimidin-7(8H)-one] | 4.5 | 2.5 | – | – | 31 | 5 | –
